Experimental data from PubChem BioAssay (NCI).
Where “and” joins values, the source holds several entries; their conditions need not be identical. Equal entries are not always repeated.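 48-hour exposure; five concentrations; linearly interpolated endpoints. GI50 = concentration required for 50% inhibition of growth. TGI is the concentration that stops growth completely.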

Tests used:
Experiment in all cases: DTP human tumour cell line panel, 48 h
SN12C renal = tested on: SN12C renal
IGROV1 ovarian = tested on: IGROV1 ovarian
MOLT-4 leukemia = tested on: MOLT-4 leukemia
SK-MEL-2 melanoma = tested on: SK-MEL-2 melanoma
RPMI-8226 leukemia = tested on: RPMI-8226 leukemia
K-562 leukemia = tested on: K-562 leukemia
HCC-2998 colon = tested on: HCC-2998 colon
HL-60(TB) leukemia = tested on: HL-60(TB) leukemia
SNB-75 CNS = tested on: SNB-75 CNS
OVCAR-8 ovarian = tested on: OVCAR-8 ovarian

Compound | GI50 (SN12C renal) | TGI (SN12C renal) | GI50 (IGROV1 ovarian) | TGI (IGROV1 ovarian) | GI50 (MOLT-4 leukemia) | TGI (MOLT-4 leukemia) | GI50 (SK-MEL-2 melanoma) | TGI (SK-MEL-2 melanoma) | GI50 (RPMI-8226 leukemia) | TGI (RPMI-8226 leukemia) | GI50 (K-562 leukemia) | TGI (K-562 leukemia) | GI50 (HCC-2998 colon) | TGI (HCC-2998 colon) | GI50 (HL-60(TB) leukemia) | TGI (HL-60(TB) leukemia) | GI50 (SNB-75 CNS) | TGI (SNB-75 CNS) | GI50 (OVCAR-8 ovarian) | TGI (OVCAR-8 ovarian)
Cn1cc(-c2ccc3c(c2)ncn3-c2ccc(CC(=O)Nc3cc(C(C)(C)C)on3)cc2)cn1 | 0.379 µM | 8.09 µM | 0.235 µM | 1.31 µM | 1.58 µM | > 100 µM | 1.99 µM | 5.14 µM | 3.35 µM | > 100 µM | 0.0284 µM | > 100 µM | 8.04 µM | > 100 µM | 3.33 µM | 9.65 µM | 0.474 µM | 2.87 µM | 3.16 µM | > 43.3 µM
C/C(=N\NC(=S)Nc1ccccc1)c1ccccn1 | 0.355 µM | 9.64 µM | < 0.0163 µM | 9.26 µM | < 0.0278 µM | 16.9 µM | 1.37 µM | 3.79 µM | 0.0296 µM | 39.3 µM | < 0.01 µM | 6.93 µM | 0.924 µM | 3.12 µM | < 0.0114 µM | 0.0781 µM | 1.86 µM | 11 µM | < 0.0169 µM | 2.54 µM
COc1ccc(C2=NN(c3ccc(S(N)(=O)=O)cc3)C(c3ccc(Cl)cc3)C2)c(O)c1 (stereo not given) | 5.09 µM | 18.3 µM | 3.63 µM | 15.2 µM | 1.92 µM | 5.07 µM | 6.3 µM | 22.7 µM | 1.84 µM | 6.71 µM | 1.8 µM | 4.09 µM | 2.62 µM | 5.37 µM | 1.86 µM | 4.99 µM | 5.87 µM | 45.1 µM | 4.74 µM | 44.4 µM
O=c1[nH]cnc2c1nnn2C1C=C(CO)C(O)C1O (stereo not given) | – | > 100 µM | – | > 100 µM | – | > 100 µM | – | > 100 µM | – | > 100 µM | – | > 100 µM | – | > 100 µM | – | – | – | > 100 µM | – | > 100 µM
CN(C)CC1CCCC(CN(C)C)C1=O (stereo not given) | 2.58 µM and 7.36 µM | 5.78 µM and 18.4 µM | – | 37.2 µM and 38.4 µM | 0.293 µM | 1.14 µM and 2.08 µM | – | 20.6 µM and 35.2 µM | 0.125 µM and 0.458 µM | 1.53 µM and 2.36 µM | 0.119 µM and 0.677 µM | 0.601 µM | – | 29.5 µM and 36 µM | 0.612 µM and 2.85 µM | 2.03 µM and 7.45 µM | – | 29.8 µM and 31.1 µM | – | 5.86 µM and 10.6 µM
COc1ccc(C(=O)Nc2ccccc2C#N)cc1 | – | > 100 µM | – | > 100 µM | – | – | – | > 100 µM | – | > 100 µM | – | > 100 µM | – | – | – | > 100 µM | – | > 100 µM | – | > 100 µM
O=C1/C(=C/c2ccccc2Cl)COc2ccccc21 | – | – | – | 35.6 µM | – | 68.1 µM | – | 29 µM | – | 22 µM | – | 29.7 µM | – | 35.9 µM | – | 58 µM | – | 32.1 µM | – | 33.4 µM
C=C(CNCCc1ccc(O)cc1)[C@@H]1CC[C@]2(CO)CC[C@]3(C)[C@H](CC[C@@H]4[C@@]5(C)CCC(NCCO)C(C)(C)[C@@H]5CC[C@]43C)[C@@H]12 (stereo not given in full) | 1.75 µM | 3.25 µM | 1.94 µM | 3.9 µM | 0.657 µM | 2.92 µM | 1.79 µM | 3.38 µM | 1.43 µM | 4 µM | – | – | 1.57 µM | 3.21 µM | – | – | 1.24 µM | 2.52 µM | 1.79 µM | 3.22 µM
O=C(NCCS(=O)(=O)N1C(=O)C2CCCN2C(=O)[C@@H]1Cc1ccccc1)OCc1ccccc1 (stereo not given in full) | – | > 100 µM | – | > 100 µM | – | > 100 µM | – | – | – | 64.4 µM | – | > 100 µM | – | 73.2 µM | – | 48.9 µM | – | > 100 µM | – | > 100 µM
Cc1cc(N(CCC#N)CCC#N)ccc1N=Nc1ccc([N+](=O)[O-])cc1 | – | > 100 µM | – | – | – | > 100 µM | – | > 100 µM | – | > 100 µM | – | > 100 µM | – | > 100 µM | – | > 100 µM | – | > 10 µM | – | 56.9 µM
c1ccc(CNc2nc(Nc3ccc(-c4nc5ccccc5[nH]4)cc3)c3cn[nH]c3n2)cc1 | 2.75 µM | 7.37 µM | 2.49 µM | 6.99 µM | 2.43 µM | 6.33 µM | – | – | 2.15 µM | 5.51 µM | – | – | 1.91 µM | 3.78 µM | 2.54 µM | 7.44 µM | 5.12 µM | 47.1 µM | 2.57 µM | 6.73 µM
C=C1CCC2C3(C)COC(c4cccc(Cl)c4)OC3CCC2(C)C1/C=C/C1=CCOC1=O (stereo not given) | > 100 µM | > 100 µM | > 100 µM | > 100 µM | 6.55 µM | > 100 µM | > 100 µM | > 100 µM | 2.9 µM | > 100 µM | 2.8 µM | > 100 µM | – | – | 8.27 µM | > 100 µM | 6.46 µM | > 100 µM | 6.73 µM | > 100 µM
COc1cc(-c2[nH]ncc2CCCC(=O)Nc2ccccc2[N+](=O)[O-])ccc1O | – | > 100 µM | – | > 100 µM | – | > 100 µM | – | – | – | > 100 µM | – | > 100 µM | – | > 100 µM | – | > 100 µM | – | > 100 µM | – | > 100 µM
CCOC(=O)C1=C(O)CSC1=Nc1ccc(N=C2SCC(O)=C2C(=O)OCC)cc1 | – | 71.8 µM | – | 60.6 µM | – | – | – | 33.7 µM | – | > 100 µM | – | > 100 µM | – | – | – | > 100 µM | – | 61.4 µM | – | > 100 µM
OCCC#Cc1ccccc1C#Cc1ccccc1 | 12.5 µM | 26.8 µM | 33.4 µM | > 100 µM | 9.84 µM | 51.9 µM | 40.6 µM | > 100 µM | 12.4 µM | 41.8 µM | 11 µM | > 100 µM | 19.1 µM | 45 µM | – | – | 19.8 µM | 53.4 µM | 30.4 µM | 66.9 µM
COc1ccc(C(NCCNC(c2ccc(OC)c(OC)c2)c2cc3c(cc2O)OCO3)c2cc3c(cc2O)OCO3)cc1OC (stereo not given) | – | 4.55 µM | – | 7.67 µM | – | > 100 µM | – | 15.9 µM | – | – | – | > 28.1 µM | – | – | – | 4.69 µM | – | 11.5 µM | – | –
CCOC(=O)C12CN(C34CC5CC(CC(C5)C3)C4)CC(C(=O)OCC)(C1=O)C(c1ccccc1)OC2c1ccccc1 (stereo not given) | – | – | – | > 100 µM | – | > 100 µM | – | > 100 µM | – | > 100 µM | – | > 100 µM | – | > 100 µM | – | > 100 µM | – | > 100 µM | – | > 100 µM
